Test results: US11713318B2, “Short conjugated oligoelectrolytes and uses thereof” (The Regents Of The University Of California, priority 2018, dated 2023)
Where two headings read alike, the source gives them in different places.

Columns and labels:
[1] = tested on: S. Typhimurium; experiment: MIC panel of pathogens, Table 4; type: cell-based; details: Salmonella enterica
[2] = tested on: K pneumoniae (clinical isolate); experiment: MIC panel of pathogens, Table 4; type: cell-based; details: clinical isolate from Cottage Hospital
[3] = tested on: E. coli; experiment: MIC panel of pathogens, Table 4; type: cell-based; details: Escherichia coli
Experimental: (§1) The minimum inhibitory concentration (MIC) was determined according to the Clinical and Laboratory Standards Institute (CLSI) guidelines by broth dilution. […] MIC values were derived after 20 h incubation, and were the result of at least 6 independent determinations.

[4] = tested on: S. flexneri; experiment: MIC panel of pathogens, Table 4; type: cell-based; details: Shigella flexneri
Experimental: as §1

[5] = tested on: Y. pseudotuberculosis; experiment: microbe, parasite or virus in culture; type: cell-based; details: Yersinia pseudotuberculosis
[6] = tested on: A. baumannii; experiment: MIC panel of pathogens, Table 4; type: cell-based; details: Acinetobacter baumannii
[7] = tested on: S. aureus (MRSA) (clinical isolate); experiment: MIC panel of pathogens, Table 4; type: cell-based; details: Staphylococcus aureus, clinical isolate from Cottage Hospital
[8] = tested on: S. pneumoniae D39; experiment: MIC panel of pathogens, Table 4; type: cell-based; details: Streptococcus pneumoniae
[9] = tested on: S. pneumoniae Daw 1; experiment: MIC panel of pathogens, Table 4; type: cell-based; details: Streptococcus pneumoniae, DAW1
[10] = tested on: NIH 3T3 (ATCC CRL-1658) cells; experiment: Cytotoxicity, MTT assay; type: cell-based; details: Mus musculus, NIH3T3; NIH 3T3; MTT, 24 hours incubation; read-out: IC50
In short: (§2)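 Cells seeded at 5000/well (NIH 3T3) or 10000/well (Hep G2, J774, RAW264.7) in DMEM+10% FBS, incubated overnight, then exposed 24 h to 2-fold serial dilutions (9 concentrations, six replicates each). MTT added for 4 h, formazan dissolved in DMSO, A570 read. Viability expressed as blank-corrected absorbance relative to medium-only control.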

[11] = tested on: RAW264.7 (ATCC TIB-71) cells; experiment: Cytotoxicity, MTT assay; type: cell-based, murine; details: Mus musculus, RAW264.7; RAW 264.7; MTT, 24 hours incubation; read-out: IC50
Experimental: Before removing the frozen cell stocks from liquid nitrogen, culture medium was pre-warmed to 37° C. The frozen tube was then removed from liquid nitrogen and placed into a 37° C. water bath and shaken gently to thaw the cell stock as quickly as possible. A small portion of the pre-warmed culture medium was added to the cell solution. The cell suspension was then centrifuged at 1000 r/min for 3 minutes. The supernatant was discarded and the cells were resuspended in fresh culture medium.
NIH 3T3 (ATCC CRL-1658) and Hep G2 (ATCC HB-8065) cells were cultured with DMEM+10% FBS in 100 mm dishes. Cells were lifted for subculture or testing when confluence reached ˜60% by treating with 1× trypsin (incubated for 3 min at 37° C.). J774 (ATCC TIB-67) cells were cultured with DMEM+10% FBS in 100 mm dishes. Cells were lifted for subculture or testing when confluence reached ˜80% using a cell scraper. RAW264.7 (ATCC TIB-71) cells were cultured with DMEM+10% heat-inactivated FBS+1% pen/strep in T75 flasks. Cells were lifted for subculture or testing when confluence reached ˜80% using a cell scraper.
• 1. Cells were lifted and resuspended in culture medium. The number of cells in the cell suspension was determined using an auto-cell counter: 10 μL of the cell suspension was mixed with 10 μL 1× trypan blue (filtered with 0.2 μm PES filter) and the mixture was loaded onto a cell counting slide. Based on the concentration of viable cells, the cell suspension was further diluted to achieve the desired density. • 2. […] The 96-well plates were analyzed in a plate reader using the following method: shake for 5 minutes, wait for 30 seconds, and measure absorbance at 570 nm. • 8. Data processing: The average of background Abg was calculated from the blank column. […] The average A. and standard deviation Se of each experimental group and the average Ac and standard deviation Sc for control group (with pure culture medium incubation) were then calculated. The cell viability was determined as Ae/Ac×100% and corresponding error as Se/Ae×100%. […]

[12] = tested on: primary human hepatocytes; experiment: Cytotoxicity tested by Eurofins Pharma Discovery Services; type: cell-based; details: Hepatocyte, data provided by Eurofins, read-out: IC50
[13] = tested on: HRPTEpiC; experiment: as above; type: cell-based; details: data provided by Eurofins, read-out: IC50
[14] = tested on: K. aerogenes (ATCC 13048); experiment: MIC broth microdilution method, Table 3; details: Klebsiella aerogenes, ATCC13048
[15] = tested on: S. epidermidis (ATCC 14990); experiment: MIC broth microdilution method, Table 3; details: Staphylococcus epidermidis, ATCC14990
[16] = Cytotoxicity, MTT assay; type: cell-based; details: at the concentration given as IC50 bound, read-out: cell viability at the highest or lowest test concentration
In short: as §2

[17] = Cytotoxicity tested by Eurofins Pharma Discovery Services; type: cell-based; details: human, Hep G2 cells; Hep G2, Eurofins; at the concentration given as IC50 bound; read-out: cell viability at the highest or lowest test concentration

| Compound | MIC [1] [µg/mL] | MIC [2] [µg/mL] | MIC [3] [µg/mL] | MIC [4] [µg/mL] | MIC [5] [µg/mL] | MIC [6] [µg/mL] | MIC [7] [µg/mL] | MIC [8] [µg/mL] | MIC [9] [µg/mL] | IC50 [10] [µg/mL] | IC50 [11] [µg/mL] | IC50 [12] [µg/mL] | IC50 [13] [µg/mL] | MIC [14] [µg/mL] | MIC [15] [µg/mL] | viability at 24 h ([16]; human, Hep G2 (ATCC HB-8065) cells, Hep G2) [%] | viability at 24 h ([16]; mouse, J774 (ATCC TIB-67) cells) [%] | viability at 24 h ([16]; mouse, NIH 3T3 (ATCC CRL-1658) cells, NIH 3T3) [%] | viability [17] [%] |
| --- | --- | --- | --- | --- | --- | --- | --- | --- | --- | --- | --- | --- | --- | --- | --- | --- | --- | --- | --- |
| CCCCCC[N+](C)(C)CCCCCCOc1cc(/C=C/c2cc(OCCCCCC[N+](C)(C)CCCCCC)cc(OCCCCCC[N+](C)(C)CCCCCC)c2)cc(OCCCCCC[N+](C)(C)CCCCCC)c1 [Formula E] | 2 | 4 | 2 | 2 | 1 | 4 | 1 | 4 | 8 | 10.4 | 3.76 | 13.2 | 2.6 | 8 | 4 |  |  |  |  |
| C[N+](C)(C)CCCCOc1cc(/C=C/c2ccc(/C=C/c3cc(OCCCC[N+](C)(C)C)cc(OCCCC[N+](C)(C)C)c3)cc2)cc(OCCCC[N+](C)(C)C)c1.[I-].[I-].[I-].[I-] [Formula F] |  |  |  |  |  |  |  |  |  | > 128 |  | > 324 | 79.2 | 32 | 2 | 100 | 51 | 56.2 | 70 |
